Assay results published in patent publication US20260138976A1 (Hoffmann-La Roche Inc., priority 2022, published 2026).

System: primary human T-cells
Test: Proliferation assay (5 days, CellTiter-Glo, CD3-stimulated T-cells)
Assay type: cell-based
Conditions: for Emax proliferation (% activation): CD3 condition, normalised to DMSO (neutral) and 20 μM reference compound A1 = 100%; for EC50: Homo sapiens, T-cell, 120 h, CD3-stimulated primary human T-cells, 5 days, CellTiter-Glo, fitted sigmoidal curve, read-out: Tcell Proliferation CD3 EC50
Summary of the method: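 Expanded primary human T-cells, 100 k cells/well, were stimulated with plate-coated CD3 antibody (donor-titrated) and given compound in a 5 or 6 pt dose response from 20 μM or 10 μM final top, 0.2% DMSO final. ATP was read by CellTiter-Glo after 5 days. EC50 and Emax were reported as % of 20 μM reference compound A1.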

SMILES | Emax proliferation (% activation) | EC50
COc1ccc(-c2ccc(CN3C(=O)[C@@H](N)CS(=O)(=O)c4ccc(-c5nnc(N6CCC(F)(F)C6)o5)cc43)cc2)cc1 [Example 76, (3R)-3-amino-7-[5-(3,3-difluoropyrrolidin-1-yl)-1,3,4-oxadiazol-2-yl]-5-[[4-(4-methoxyphenyl)phenyl]methyl]-1,1-dioxo-2,3-dihydro-1λ^6,5-benzothiazepin-4-one] | 263 % activation | 1360 nM
N[C@H]1CS(=O)(=O)c2ccc(-c3nnc(N4CCOC5(CC5)C4)o3)cc2N(Cc2ccc(-c3noc(C(F)(F)F)n3)cc2)C1=O [Example 77] | 58 % activation | 3920 nM
COc1ccc(-c2ccc(CN3C(=O)[C@@H](N)CS(=O)(=O)c4ccc(-c5nnc(N6CCOC(F)(F)C6)o5)cc43)cc2)cc1 [Example 79, (3R)-3-amino-7-[5-(2,2-difluoromorpholin-4-yl)-1,3,4-oxadiazol-2-yl]-5-[[4-(4-methoxyphenyl)phenyl]methyl]-1,1-dioxo-2,3-dihydro-1λ^6,5-benzothiazepin-4-one] | 167 % activation | 989 nM
N[C@H]1CS(=O)(=O)c2ccc(-c3noc(C4(N)COC4)n3)cc2N(Cc2ccc(-c3noc(C(F)(F)F)n3)cc2)C1=O [Example 84, (3R)-3-amino-7-[5-(3-aminooxetan-3-yl)-1,2,4-oxadiazol-3-yl]-1,1-dioxo-5-[[4-[5-(trifluoromethyl)-1,2,4-oxadiazol-3-yl]phenyl]methyl]-2,3-dihydro-1lambda6,5-benzothiazepin-4-one] | 151 % activation | 1750 nM
N[C@H]1CS(=O)(=O)c2ccc(-c3noc(-c4cccnc4Cl)n3)cc2N(Cc2ccc(-c3noc(C4CC4)n3)cc2)C1=O [Example 85, (3R)-3-amino-7-[5-(2-chloro-3-pyridyl)-1,2,4-oxadiazol-3-yl]-5-[[4-(5-cyclopropyl-1,2,4-oxadiazol-3-yl)phenyl]methyl]-1,1-dioxo-2,3-dihydro-1λ^6,5-benzothiazepin-4-one] | 62 % activation | 8170 nM
Cc1nc(F)ccc1-c1nc(-c2ccc3c(c2)N(Cc2ccc(-c4noc(C5CC5)n4)cc2)C(=O)[C@@H](N)CS3(=O)=O)no1 [Example 86, (3R)-3-amino-5-[[4-(5-cyclopropyl-1,2,4-oxadiazol-3-yl)phenyl]methyl]-7-[5-(6-fluoro-2-methyl-3-pyridyl)-1,2,4-oxadiazol-3-yl]-1,1-dioxo-2,3-dihydro-1λ^6,5-benzothiazepin-4-one] | 99 % activation | 1660 nM
N[C@H]1CS(=O)(=O)c2ccc(-c3noc(-c4cccnc4C(F)(F)F)n3)cc2N(Cc2ccc(-c3noc(C4CC4)n3)cc2)C1=O [Example 87, (3R)-3-amino-5-[[4-(5-cyclopropyl-1,2,4-oxadiazol-3-yl)phenyl]methyl]-1,1-dioxo-7-[5-[2-(trifluoromethyl)-3-pyridyl]-1,2,4-oxadiazol-3-yl]-2,3-dihydro-1λ^6,5-benzothiazepin-4-one] | 106 % activation | 3620 nM
CC(C)(C)c1nnc(-c2ccc3c(c2)N(Cc2ccc(-c4nc(C(F)(F)F)co4)cc2)C(=O)[C@@H](N)CS3(=O)=O)o1 [Example 89, (3R)-3-amino-7-(5-tert-butyl-1,3,4-oxadiazol-2-yl)-1,1-dioxo-5-[[4-[4-(trifluoromethyl)oxazol-2-yl]phenyl]methyl]-2,3-dihydro-1λ^6,5-benzothiazepin-4-one] | 153 % activation | 203 nM
CC(C)(C)c1nnc(-c2ccc3c(c2)N(Cc2ccc(-n4cnc(C(F)(F)F)n4)cc2)C(=O)[C@@H](N)CS3(=O)=O)o1 [Example 91, (3R)-3-amino-7-(5-tert-butyl-1,3,4-oxadiazol-2-yl)-1,1-dioxo-5-[[4-[3-(trifluoromethyl)-1,2,4-triazol-1-yl]phenyl]methyl]-2,3-dihydro-126,5-benzothiazepin-4-one] | 127 % activation | 404 nM
N[C@H]1CS(=O)(=O)c2ccc(-c3nnc(C4(C5CC5)CCCO4)o3)cc2N(Cc2ccc(-c3nnc(C(F)(F)F)o3)cc2)C1=O (stereo partly drawn) [Example 97, (3R)-3-amino-7-[5-(2-cyclopropyltetra-hydrofuran-2-yl)-1,3,4-oxadiazol-2-yl]-1,1-dioxo-5-[[4-[5-(trifluoromethyl)-1,3,4-oxadiazol-2-yl]phenyl]methyl]-2,3-dihydro-1λ6,5-benzothiazepin-4-one] | 96 % activation | 375 nM
CC(c1nc(-c2ccc(CN3C(=O)[C@@H](N)CS(=O)(=O)c4ccc(-c5nnc(C6(N)CCCCC6)o5)cc43)cc2)no1)C(F)(F)F (stereo partly drawn) [Example 98, (3R)-3-amino-7-[5-(1-aminocyclohexyl)-1,3,4-oxadiazol-2-yl]-1,1-dioxo-5-[[4-[5-(2,2,2-trifluoro-1-methyl-ethyl)-1,2,4-oxadiazol-3-yl]phenyl]methyl]-2,3-dihydro-1λ^6,5-benzothiazepin-4-one] | 97 % activation | 1820 nM
CC(C)(C#N)c1nnc(-c2ccc3c(c2)N(Cc2ccc(-n4ccc(C(F)(F)F)n4)cc2)C(=O)[C@@H](N)CS3(=O)=O)o1 [Example 121, 2-[5-[(3R)-3-amino-1,1,4-trioxo-5-[[4-[3-(trifluoromethyl)pyrazol-1-yl]phenyl]methyl]-2,3-dihydro-1λ^6,5-benzothiazepin-7-yl]-1,3,4-oxadiazol-2-yl]-2-methyl-propanenitrile] | 160 % activation | 1090 nM
CC1(c2nnc(-c3ccc4c(c3)N(Cc3ccc(-c5noc(C(F)(F)F)n5)cc3)C(=O)[C@@H](N)CS4(=O)=O)o2)COC1 [Example 149, (3R)-3-amino-7-[5-(3-methyloxetan-3-yl)-1,3,4-oxadiazol-2-yl]-1,1-dioxo-5-[[4-[5-(trifluoromethyl)-1,2,4-oxadiazol-3-yl]phenyl]methyl]-2,3-dihydro-1λ^6,5-benzothiazepin-4-one] | 118 % activation | 1210 nM
CC1(c2nnc(-c3ccc4c(c3)N(Cc3ccc(-c5ccc(C(F)(F)F)cn5)cc3)C(=O)[C@@H](N)CS4(=O)=O)o2)COC1 [Example 150, (3R)-3-amino-7-[5-(3-methyloxetan-3-yl)-1,3,4-oxadiazol-2-yl]-1,1-dioxo-5-[[4-[5-(trifluoromethyl)-2-pyridyl]phenyl]methyl]-2,3-dihydro-1λ^6,5-benzothiazepin-4-one] | 79 % activation | 656 nM
C[C@@](N)(c1nnc(-c2ccc3c(c2)N(Cc2ccc(-n4ccc(C(F)(F)F)n4)cc2)C(=O)[C@@H](N)CS3(=O)=O)o1)C(F)(F)F [Example 157, (3R)-3-amino-7-[5-[(1R)-1-amino-2,2,2-trifluoro-1-methyl-ethyl]-1,3,4-oxadiazol-2-yl]-1,1-dioxo-5-[[4-[3-(trifluoromethyl)pyrazol-1-yl]phenyl]methyl]-2,3-dihydro-1λ^6,5-benzothiazepin-4-one] | 130 % activation | 600 nM
COC(=O)N1CC2CC(c3nnc(-c4ccc5c(c4)N(Cc4ccc(-c6ccc(C(F)(F)F)cn6)cc4)C(=O)[C@@H](N)CS5(=O)=O)o3)(C2)C1 [Example 159, methyl 1-[5-[(3R)-3-amino-1,1,4-trioxo-5-[[4-[5-(trifluoromethyl)-2-pyridyl]phenyl]methyl]-2,3-dihydro-1λ^6,5-benzothiazepin-7-yl]-1,3,4-oxadiazol-2-yl]-3-azabicyclo[3.1.1]heptane-3-carboxylate] | 146 % activation | 152 nM
N[C@H]1CS(=O)(=O)c2ccc(-c3nnc(N4CCC(F)(F)CC4)o3)cc2N(Cc2ccc(-c3nc(C(F)(F)F)no3)cc2)C1=O [Example 161, (3R)-3-amino-7-[5-(4,4-difluoro-1-piperidyl)-1,3,4-oxadiazol-2-yl]-1,1-dioxo-5-[[4-[3-(trifluoromethyl)-1,2,4-oxadiazol-5-yl]phenyl]methyl]-2,3-dihydro-1λ^6,5-benzothiazepin-4-one] | 178 % activation | 327 nM
N#CC1CN(c2nnc(-c3ccc4c(c3)N(Cc3ccc(-c5noc(C(F)(F)F)n5)cc3)C(=O)[C@@H](N)CS4(=O)=O)o2)CCO1 (stereo partly drawn) [Example 163, 4-[5-[(3R)-3-amino-1,1,4-trioxo-5-[[4-[5-(trifluoromethyl)-1,2,4-oxadiazol-3-yl]phenyl]methyl]-2,3-dihydro-1λ^6,5-benzothiazepin-7-yl]-1,3,4-oxadiazol-2-yl]morpholine-2-carbonitrile] | 106 % activation | 6440 nM
COCC1CN(c2nnc(-c3ccc4c(c3)N(Cc3ccc(-c5noc(C(F)(F)F)n5)cc3)C(=O)[C@@H](N)CS4(=O)=O)o2)CCO1 (stereo partly drawn) [Example 164, (3R)-3-amino-7-[5-[2-(methoxymethyl)morpholin-4-yl]-1,3,4-oxadiazol-2-yl]-1,1-dioxo-5-[[4-[5-(trifluoromethyl)-1,2,4-oxadiazol-3-yl]phenyl]methyl]-2,3-dihydro-1λ^6,5-benzothiazepin-4-one] | 86 % activation | 390 nM
CC(C)(c1nnc(-c2ccc3c(c2)N(Cc2ccc(-c4noc(C(F)(F)F)n4)cc2)C(=O)[C@@H](N)CS3(=O)=O)o1)C(F)(F)F [Example 166] | 164 % activation | 75.9 nM
CC(C)(c1nnc(-c2ccc3c(c2)N(Cc2ccc(-c4noc(C5CC5)n4)cc2)C(=O)[C@@H](N)CS3(=O)=O)o1)C(F)(F)F [Example 167, (3R)-3-amino-5-[[4-(5-cyclopropyl-1,2,4-oxadiazol-3-yl)phenyl]methyl]-1,1-dioxo-7-[5-(2,2,2-trifluoro-1,1-dimethyl-ethyl)-1,3,4-oxadiazol-2-yl]-2,3-dihydro-1λ^6,5-benzothiazepin-4-one] | 186 % activation | 629 nM
